Measurements as given in patent US11098040B2, “Compounds and methods of use” (Ferro Therapeutics, Inc., priority 2018, dated 2021).
pIC50: −log10 of the molar value. Read-outs that look alike come from different tables or passages of the source.

Experiments:
H2228 = experiment: Cell viability assay (CellTiter Glo), lung cancer cell line H2228; assay type: cell-based; conditions: Homo sapiens, NCI-H2228; Cell Line H2228; read-out: IC50
In short: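 Seed 500-5,000 adherent or 5,000-10,000 suspension cells/well; overnight 37° C. Add compound, 9 conc., 3-fold steps, top ≤30 μM, DMSO ≤0.25%. Incubate 96 h, add CellTiter Glo, read luminescence at 10 min.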

MiaPaCa-2 = experiment: Cell viability assay (CellTiter Glo), pancreatic carcinoma MiaPaCa-2; assay type: cell-based; conditions: Homo sapiens; Cell Line Mia PaCa-2; read-out: IC50
In short: (§1)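 MiaPaCa-2 and AsPC-1 cells were seeded overnight at 37 °C and exposed for 96 h to 9-point, 3-fold dilutions from up to 30 μM (final DMSO ≤0.25%). CellTiter Glo luminescence was read, and inhibition was calculated relative to DMSO-only cells. IC50, relative IC50 or % top inhibition was derived.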

AsPC-1 = experiment: Cell viability assay (CellTiter Glo), pancreatic adenocarcinoma AsPC-1; assay type: cell-based; conditions: Homo sapiens, ASPC1; Cell Line AsPC-1; read-out: IC50
In short: as §1

HT-1080 luc2 = experiment: Cell viability assay (CellTiter Glo), fibrosarcoma HT-1080 luc2; assay type: cell-based; conditions: Homo sapiens, Cell Line HT1080, read-out: IC50
In short: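 HT-1080 luc2 fibrosarcoma cells seeded overnight, then exposed 96 h at 37° C to 9-point 3-fold dilutions (top up to 30 μM; DMSO ≤0.25% final). CellTiter Glo luminescence; % inhibition relative to DMSO-only wells, fitted to IC50, relative IC50 or % top inhibition.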

143B = experiment: Cell viability assay (CellTiter Glo), osteosarcoma 143B; assay type: cell-based; conditions: Homo sapiens, Cell Line 143B, read-out: IC50
In short: (§2)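 Cells seeded at 500-5,000/well overnight, then 96 h exposure to 9-point 3-fold dilutions from up to 30 μM (4.6 nM-30 μM), final DMSO ≤0.25%. Viability by CellTiter Glo luminescence; inhibition relative to DMSO-only cells, yielding IC50, relative IC50 or % top inhibition.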

SJSA-1 [1] = experiment: Cell viability assay (CellTiter Glo), osteosarcoma SJSA-1; assay type: cell-based; conditions: Homo sapiens, 96 hours
In short: as §2

KP4 = experiment: Cell viability assay (CellTiter Glo), pancreatic ductal adenocarcinoma KP4; assay type: cell-based, human; conditions: Homo sapiens
In short: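 Luminescent ATP readout (CellTiter Glo) after 96 h compound exposure, normalized to DMSO-treated cells as maximum. Compounds ran in duplicate, nine 3-fold steps from 30 μM down to 4.6 nM, final DMSO ≤0.25%; KP4 plated overnight at 1,000–10,000 cells/well. Outputs: IC50, relative IC50 or % top inhibition.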

A549 = experiment: Cell viability assay, A549 cells; assay type: cell-based; conditions: Homo sapiens, A549, Cell Line A549; read-out: IC50
In short: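 Growth of A549 cells was assessed with a cell viability assay. Cells were plated at 1,000-10,000 cells/well in 96-well plates and incubated overnight at 37° C. Nine-point 3-fold DMSO dilutions, starting from 30 μM and run in duplicate, were diluted into media (final DMSO 0.25% or less). After 96 hours, CellTiter Glo luminescence was read, inhibition was calculated against DMSO controls, and IC50 was fitted in XL-fit.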

Panc 02.13 = experiment: Cell proliferation assay, pancreatic cancer cell line Panc 02.13; assay type: cell-based
Experimental: (§3) Cell viability assay was performed to assess the potency of the compounds in human cancer cell lines 786-O (renal cell carcinoma) and SJSA-1 (osteosarcoma). Additional cell lines, such as those described above in Example 4 as well as various others, e.g., pancreatic cancer cell lines (Panc 02.13, BxPC-3, Panc 12, Panc 02.03, Panc 6.03, PSN-1, HPAC, and Capan-1) and prostate cancer cell lines (PC-3, DU145, 22Rv1, NCI-H660, BPH1, LNCaP, BM-1604, and MDA PCa 2b), were tested for select compounds as shown in Table 25.
(§4) The cell proliferation assays for the compounds shown Table 25 was performed according to the protocols described herein, including Examples 4 and 6.

BxPC-3 = experiment: Cell proliferation assay, pancreatic cancer cell line BxPC-3; assay type: cell-based; conditions: Homo sapiens
Experimental: as §3, §4

Panc 12 = experiment: Cell proliferation assay, pancreatic cancer cell line Panc 12; assay type: cell-based
Experimental: as §3, §4

Panc 02.03 = experiment: Cell proliferation assay, pancreatic cancer cell line Panc 02.03; assay type: cell-based; conditions: Homo sapiens
Experimental: as §3, §4

Panc 6.03 = experiment: Cell proliferation assay, pancreatic cancer cell line Panc 6.03; assay type: cell-based
Experimental: as §3, §4

PSN-1 = experiment: Cell proliferation assay, pancreatic cancer cell line PSN-1; assay type: cell-based; conditions: Homo sapiens, PSN1
Experimental: as §3, §4

HPAC = experiment: Cell proliferation assay, pancreatic cancer cell line HPAC; assay type: cell-based; conditions: Homo sapiens
Experimental: as §3, §4

Capan-1 = experiment: Cell proliferation assay, pancreatic cancer cell line Capan-1; assay type: cell-based; conditions: Homo sapiens
Experimental: as §3, §4

MG-63 = experiment: Cell proliferation assay, MG-63 (Table 25); assay type: cell-based; conditions: Homo sapiens
Experimental: as §3, §4

U-2 OS = experiment: Cell proliferation assay, U-2 OS (Table 25); assay type: cell-based; conditions: Homo sapiens, U2OS; Cell Line U-2 OS
Experimental: as §3, §4

SJSA-1 [2] = experiment: Cell proliferation (Alamar Blue) assay, SJSA-1 osteosarcoma, with/without ferrostatin; assay type: cell-based, human; conditions: Homo sapiens, SJSA-1, Cell Line SJSA-1; read-out: IC50
In short: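 Cells seeded at 5000/well, 16-24 h, then exposed 24 h at 37° C to compound, 10-0.0005 μM in 3-fold dilutions, 1% DMSO final. Alamar Blue fluorescence (ex 540/em 590 nm) read after 1.5 h; IC50 from variable-slope sigmoidal fit.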

KHOS/NP = experiment: Cell proliferation assay, KHOS/NP (Table 25); assay type: cell-based; conditions: Homo sapiens, Cell Line KHOS/NP
Experimental: as §3, §4

KSK-ES-1 = experiment: Cell proliferation assay, KSK-ES-1 (Table 25); assay type: cell-based; conditions: Cell Line KSK-ES-1
Experimental: as §3, §4

[3] = Whole blood stability, mouse; assay type: in vitro ADME
Text: (§5) The results of the assay on stability in blood and IC50 values for pancreatic cancer cell line KP4 are given below in Table 24.

[4] = Whole blood stability, human; assay type: in vitro ADME
Text: as §5

A673 = experiment: Cell proliferation assay, A673 (Table 25); assay type: cell-based; conditions: Homo sapiens, A673, Cell Line A673
Experimental: as §3, §4

PC-3 = experiment: Cell proliferation assay, prostate cancer cell line PC-3; assay type: cell-based; conditions: Homo sapiens
Experimental: as §3, §4

DU145 = experiment: Cell proliferation assay, prostate cancer cell line DU145; assay type: cell-based; conditions: Homo sapiens, DU-145
Experimental: as §3, §4

22Rv1 = experiment: Cell proliferation assay, prostate cancer cell line 22Rv1; assay type: cell-based; conditions: Homo sapiens
Experimental: as §3, §4

NCI-H660 = experiment: Cell proliferation assay, prostate cancer cell line NCI-H660; assay type: cell-based
Experimental: as §3, §4

BPH1 = experiment: Cell proliferation assay, prostate cancer cell line BPH1; assay type: cell-based; conditions: Homo sapiens, BPH-1
Experimental: as §3, §4

LNCaP = experiment: Cell proliferation assay, prostate cancer cell line LNCaP; assay type: cell-based; conditions: Homo sapiens
Experimental: as §3, §4

BM-1604 = experiment: Cell proliferation assay, prostate cancer cell line BM-1604; assay type: cell-based
Experimental: as §3, §4

MDA PCa 2b = experiment: Cell proliferation assay, prostate cancer cell line MDA PCa 2b; assay type: cell-based
Experimental: as §3, §4

| Structure (SMILES) | pIC50 (H2228) | pIC50 (MiaPaCa-2) | pIC50 (AsPC-1) | pIC50 (HT-1080 luc2) | pIC50 (143B) | pIC50 (A549) | pIC50 (Panc 02.13) | pIC50 (BxPC-3) | pIC50 (Panc 02.03) | pIC50 (Panc 6.03) | pIC50 (PSN-1) | pIC50 (HPAC) | pIC50 (Capan-1) | pIC50 (MG-63; MG-63, Cell Line MG-63) | pIC50 (U-2 OS) | also measured |
| --- | --- | --- | --- | --- | --- | --- | --- | --- | --- | --- | --- | --- | --- | --- | --- | --- |
| CCC[C@H]1Cc2c([nH]c3ccccc23)[C@H](c2ccc(N3CCOCC3)cc2)N1C(=O)CCl [Example 118] | 8.86 | 7.78 | 8.13 | 8.42 | 8.32 | 5.27 | 6.99 | 7.26 | 7.31 | 7.81 | 7.75 | 7.69 | 6.89 | 7.41 | 5.30 | pIC50 (SJSA-1 [1]): 7.55; pIC50 (KP4; KP-4, Cell Line KP4, read-out: IC50): 9.04; pIC50 (Panc 12; Cell Line Panc 9): 8.19; pIC50 (MG-63; MG-63, Cell Line MG-67): < 5.52 |
| COc1ccc2[nH]c3c(c2c1)C[C@H](C)N(C(=O)CCl)[C@H]3c1ccc(N2CCOCC2)cc1 [Example 121] | 7.78 | 6.69 | 7.16 | 7.20 |  | 5.11 | 6.01 | 5.99 | 6.16 | 6.65 | 6.76 | 6.69 | < 6.00 | 6.27 | 5.31 | pIC50 (SJSA-1 [2]): 6.97; pIC50 (Panc 12; Cell Line Panc 10): 7.23; pIC50 (KHOS/NP): 7.20; pIC50 (KSK-ES-1): 6.67 |
| COc1ccc2[nH]c3c(c2c1)C[C@H](C)N(C(=O)CCl)[C@H]3c1ccc(N2CCOCC2)cc1 [Compound 121] |  |  |  |  |  |  |  |  |  |  |  |  |  |  |  | IC50 (KP4; KP-4, 96 h, pancreatic cancer cell line KP4, 96 hours, CellTiter Glo, read-out: IC50 μM KP4): < 0.01 µM; Whole Blood Stability % Remaining at 37° C. Mouse ([3]; 0 min): 100.0%; Whole Blood Stability % Remaining at 37° C. Mouse ([3]; 30 min): 84.3%; Whole Blood Stability % Remaining at 37° C. Mouse ([3]; 60 min): 50.0%; Whole Blood Stability % Remaining at 37° C. Human ([4]; 0 min): 100.0%; Whole Blood Stability % Remaining at 37° C. Human ([4]; 30 min): 90.3%; Whole Blood Stability % Remaining at 37° C. Human ([4]; 60 min): 61.3%; pIC50 (A673): 7.05 |
| CCCC[C@H]1Cc2c([nH]c3ccccc23)[C@H](c2ccc(N3CCOCC3)cc2)N1C(=O)CCl [Compound 240] | 8.77 | 7.45 | 8.12 | 8.32 | 8.28 | 5.24 | 6.92 | 7.15 | 7.19 | 7.77 | 7.70 | 7.54 | 6.77 | 7.40 | 5.37 | pIC50 (Panc 12; Cell Line Panc 11): 8.07; pIC50 (PC-3): 8.41; pIC50 (DU145): 8.21; pIC50 (22Rv1): 7.64; pIC50 (NCI-H660): 7.50; pIC50 (BPH1): 6.69; pIC50 (LNCaP): 6.24; pIC50 (BM-1604): < 5.70; pIC50 (MDA PCa 2b): < 5.70; pIC50 (MG-63; MG-63, Cell Line MG-68): < 5.52 |
